Laboratory results published in patent US11040036B2, “Pyruvate kinase activators for use in treating blood disorders” (Agios Pharmaceuticals, Inc., priority 2017, dated 2021).

Tests used:
wild type PKR [1] = biological target: T1, wild type PKR (Homo sapiens, UniProt P30613); assay: PKR mutant assay (AC50), wild type PKR; format: biochemical; conditions: wild type PKR enzyme; read-out: PKR WT AC50
Experimental: (§1) Example 11. PKR Mutant Assay
(§2) PKR or PKR mutant enzyme solution was diluted into a reaction mix, which contains 1× buffer (100 mM KCl, 50 mM Tris pH 7.5, 5 mM MgCl2) as well as PEP (cont depends on enzyme), 180 μM NADH, 0.5 units LDH, 1 mM DTT, 0.03% BSA; final assay concentrations after 1.11 fold dilution are indicated.
(§3) 2 μL of test compound was added into wells first, and then 180 μL reaction mix was added.
(§4) Reactions mixture with test compound was assembled except for ADP, and plates were stored for 60 minutes at room temperature.
(§5) 20 uL ADP was added to start reaction at room temperature and reaction progress was measured as changes in absorbance at 340 nm wavelength at room temperature.
(§6) Test Compound Preparation:
(§7) Test compound stock was made at 100× concentration in 100% DMSO (10 mM)
(§8) 1 to 3 dilutions were made for 11 points (i.e. 50 μl of first concentration added to 100 μl 100% DMSO to yield 3.33 mM, 50 μl of this added to 100 μl DMSO to yield 1.11 mM, and so forth) • 1 to 100 dilution into assay (2 μl in 200 μl) yielded starting concentration of 100 μM, decreasing 3 fold for 11 points.
(§9) Assay Buffer: 100 mM KCl, 50 mM Tris 7.5, 5 mM MgCl2, 1 ruM DTT, 0.03% BSA
(§10) Reaction Mixture: PKR mutant enzyme: 40-400 ng/well; ADP: 0.2-1.65 mM; PEP: 0.1-0.5 mM; NADH:180 μM; LDH: 0.5 units (Sigma #59023); DTT: 1 mM; BSA: 0.03%.

PKR R510Q = PKR R510Q (Homo sapiens, UniProt P30613, R510Q); assay: PKR mutant assay (AC50), PKR R510Q; format: biochemical; conditions: PKR R510Q mutant enzyme; read-out: PK R510Q AC50
Experimental: as §1, §2, §3, §4, §5, §6, §7, §8, §9, §10

PKR K410E = PKR K410E (Homo sapiens, UniProt P30613, K410E); assay: PKR mutant assay (AC50), PKR K410E; format: biochemical; conditions: PKR K410E mutant enzyme
Experimental: as §1, §2, §3, §4, §5, §6, §7, §8, §9, §10

wild type PKR [2] = biological target: T1, wild type PKR; assay: Cell based ATP assay in purified red blood cells; set-up: endogenous in cells; host or cells: purified red blood cells from blood of healthy volunteers; conditions: RBCs, overnight at 37° C., ATP levels by Cell-Titer-Glo
Experimental: Example 16. Red Blood Cell (RBC) Purification
Fresh blood drawn from healthy volunteers into K2EDTA tubes was collected. Whole blood was pelleted by spinning at 500 g for 10 minutes. Cut transfusion bag port off of Purecell leukocyte reduction neofilter (Fisher NCO267633) one (1) inch above filter. Attach a 10 ml syringe barrel to the remaining cut tubing attached to neofilter. The plasma layer was removed from the pellet of the whole blood and the pellet was resuspended in 2× volume of phosphate buffered saline (PBS). Transfer 9 ml re-suspended blood cell pellet to prepared 10 ml syringe that is attached to the neofilter. Allow whole blood to gravity flow through filter until all fluid runs through upper tubing into filter disc. Add plunger to the syringe, remove syringe from clamp and invert the filter, then plunge air through the syringe filter system. Using a new 5 ml syringe, remove filtered RBCs from the bag by the syringe port and transfer purified RBCs to a 5 ml snap cap tube that has been incubated on ice. Spin 5 ml snap cap tube at 500 g for 10 minutes at 15 C, aspirate supernatant and resuspend in AGAM (1×PBS, 1% glucose, 170 mg/L adenine, 5.25 g/L mannitol) at a density of 4×10^9 cells/mL.
Example 17. Cell Based ATP Assay
For cell based ATP assays, the compound as described herein was prepared in 100% DMSO as a 10 mM stock. Serial dilutions (1:4) were performed in 96-well V-bottom storage plate and then added 1:100 to 96-well V-bottom plates containing AGAM. RBCs were diluted in AGAM media to a density of 1×10^7 cells/mL before added 90 μL/well to black clear bottom assay plates (final compound concentration at 0.1% DMSO concentration). Assay plates were sealed using aluminum foil seals and incubated overnight at 37° C. in a humidified chamber. ATP levels were read out using Cell-Titer-Glo (Promega).

Sequence of PKR R510Q (P30613 whole entry R510Q): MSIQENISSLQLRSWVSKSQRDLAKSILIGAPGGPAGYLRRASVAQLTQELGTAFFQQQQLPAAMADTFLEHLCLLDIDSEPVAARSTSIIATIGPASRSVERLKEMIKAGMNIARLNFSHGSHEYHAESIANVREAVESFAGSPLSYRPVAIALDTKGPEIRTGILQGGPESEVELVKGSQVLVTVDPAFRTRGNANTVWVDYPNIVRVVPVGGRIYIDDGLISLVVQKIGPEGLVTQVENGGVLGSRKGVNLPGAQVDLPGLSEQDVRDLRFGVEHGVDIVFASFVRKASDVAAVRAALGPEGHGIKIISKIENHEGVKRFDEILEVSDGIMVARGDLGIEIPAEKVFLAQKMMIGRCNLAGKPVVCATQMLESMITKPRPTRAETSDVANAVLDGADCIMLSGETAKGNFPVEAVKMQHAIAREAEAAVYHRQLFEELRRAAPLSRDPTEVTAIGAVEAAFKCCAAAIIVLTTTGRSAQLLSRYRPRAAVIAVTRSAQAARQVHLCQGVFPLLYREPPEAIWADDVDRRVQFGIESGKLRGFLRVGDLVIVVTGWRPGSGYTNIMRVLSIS
T1 sequence (P30613 whole entry): as the sequence (P30613 whole entry R510Q) above, with Q510R counted along it
Sequence of PKR K410E (P30613 whole entry K410E): as the sequence (P30613 whole entry R510Q) above, with K410E, Q510R counted along it

| Structure (SMILES) | AC50 (wild type PKR [1]) [nM] | AC50 (PKR R510Q) [nM] | AC50 (PKR K410E) [nM] | AC50 (wild type PKR [2]) [nM] |
| --- | --- | --- | --- | --- |
| Cn1cc(F)c(Cn2ncc3c4sc(Cc5cc[nH]n5)nc4n(C)c3c2=O)n1 | < 300 | < 300 | < 300 | ≤ 1000 |
| COc1cc(Cn2ncc3c4sc(Cc5cc[nH]n5)nc4n(C)c3c2=O)ccn1 | < 300 | < 300 | < 300 | ≤ 1000 |
| Cn1c2nc(Cc3cc[nH]n3)sc2c2cnn(Cc3n[nH]c(=O)[nH]3)c(=O)c21 | > 800 | > 800 | > 800 | > 1000 |
| Cn1c2nc(Cc3cc[nH]n3)sc2c2cnn(Cc3ccc(=O)[nH]c3)c(=O)c21 | < 300 | < 300 | < 300 | ≤ 1000 |
| CNc1ccc(F)c(Cn2ncc3c4sc(Cc5cc[nH]n5)nc4n(C)c3c2=O)n1 | < 300 | < 300 | < 300 | ≤ 1000 |
| Cn1c2nc(Cc3cc[nH]n3)sc2c2cnn(Cc3ccnn3N)c(=O)c21 | < 300 | < 300 | < 300 | ≤ 1000 |
| Cn1c2nc(Cc3ccccn3)sc2c2cnn(Cc3ccccn3)c(=O)c21 | < 300 | 301 to 800 | < 300 | ≤ 1000 |
| Cn1c2nc(Cc3csc(CO)n3)sc2c2cnn(Cc3cccc(N)n3)c(=O)c21 | < 300 | < 300 | < 300 | ≤ 1000 |
| Cn1cc(Cl)c(Cn2ncc3c4sc(Cc5cc[nH]n5)nc4n(C)c3c2=O)n1 | < 300 | < 300 | < 300 | ≤ 1000 |
| Cn1ccc(Cc2nc3c(s2)c2cnn(Cc4c[nH]nn4)c(=O)c2n3C)n1 | < 300 | < 300 | < 300 | ≤ 1000 |
| Cn1c2nc(Cc3ccccn3)sc2c2cnn(Cc3csc(N)n3)c(=O)c21 | < 300 | < 300 | < 300 | ≤ 1000 |
| Cn1ncc(Cn2ncc3c4sc(Cc5cc[nH]n5)nc4n(C)c3c2=O)n1 | < 300 | < 300 | < 300 | ≤ 1000 |
| Cn1c2nc(Cc3cc[nH]n3)sc2c2cnn(Cc3[nH]ncc3Cl)c(=O)c21 | < 300 | < 300 | < 300 | ≤ 1000 |
| Cn1c2nc(Cc3cscn3)sc2c2cnn(Cc3cc[nH]n3)c(=O)c21 | < 300 | < 300 | < 300 | ≤ 1000 |
| Cn1cc(CC(N)=O)c(Cn2ncc3c4sc(Cc5cc[nH]n5)nc4n(C)c3c2=O)n1 | > 800 | > 800 | > 800 | > 1000 |
| Cn1c2nc(Cc3nc(N)ccc3F)sc2c2cnn(Cc3cc[nH]n3)c(=O)c21 | < 300 | < 300 | < 300 | ≤ 1000 |
| Cn1c2nc(Cc3csc(CO)n3)sc2c2cnn(Cc3cc[nH]n3)c(=O)c21 | < 300 | < 300 | < 300 | ≤ 1000 |
| Cc1c[nH]nc1Cn1ncc2c3sc(Cc4n[nH]cc4F)nc3n(C)c2c1=O | < 300 | < 300 | < 300 | ≤ 1000 |
| Cn1c2nc(Cn3ccc([N+](=O)[O-])n3)sc2c2cnn(Cc3cc[nH]n3)c(=O)c21 | < 300 | < 300 | < 300 | ≤ 1000 |
| Cn1c2nc(Cc3cc[nH]n3)sc2c2cnn(Cc3csc(C(N)=O)n3)c(=O)c21 | < 300 | < 300 | < 300 | ≤ 1000 |
| COc1cn(C)nc1Cn1ncc2c3sc(Cc4cc[nH]n4)nc3n(C)c2c1=O | < 300 | < 300 | < 300 | ≤ 1000 |

| Structure (SMILES) | AC50 (wild type PKR [1]) [nM] | AC50 (PKR R510Q) [nM] | AC50 (PKR K410E) [nM] | AC50 (wild type PKR [2]) [nM] |
| --- | --- | --- | --- | --- |
| Cn1cc(Cn2ncc3c4sc(Cc5cc[nH]n5)nc4n(C)c3c2=O)nn1 | < 300 | < 300 | < 300 | ≤ 1000 |
| Cc1ccc(Cn2ncc3c4sc(Cc5cc[nH]n5)nc4n(C)c3c2=O)nc1Cl | < 300 | < 300 | < 300 | ≤ 1000 |
| Cn1c2nc(Cc3cscn3)sc2c2cnn(Cc3nccs3)c(=O)c21 | < 300 | < 300 | < 300 | ≤ 1000 |
| Cn1c2nc(Cn3ccnn3)sc2c2cnn(Cc3cc[nH]n3)c(=O)c21 | < 300 | < 300 | < 300 | ≤ 1000 |
| Cn1c2nc(C(=O)c3cc[nH]n3)sc2c2cnn(Cc3cc[nH]n3)c(=O)c21 | 301 to 800 | 301 to 800 | > 800 | ≤ 1000 |
| CN(C)c1cccc(Cc2nc3c(s2)c2cnn(Cc4cc[nH]n4)c(=O)c2n3C)n1 | < 300 | < 300 | < 300 | ≤ 1000 |
| Cn1cc(C(N)=O)c(Cn2ncc3c4sc(Cc5cc[nH]n5)nc4n(C)c3c2=O)n1 | > 800 | > 800 | 301 to 800 | > 1000 |
| Cn1c2nc(Cc3cc[nH]n3)sc2c2cnn(Cc3ccc[nH]c3=O)c(=O)c21 | < 300 | < 300 | < 300 | ≤ 1000 |
| Cc1scnc1Cn1ncc2c3sc(Cc4cc[nH]n4)nc3n(C)c2c1=O | < 300 | < 300 | < 300 | ≤ 1000 |
| Cn1c2nc(Cc3cc[nH]n3)sc2c2cnn(Cc3ncns3)c(=O)c21 | < 300 | < 300 | < 300 | ≤ 1000 |
| Cn1c2nc(Cc3cc[nH]n3)sc2c2cnn(Cc3ccnc(N)n3)c(=O)c21 | < 300 | < 300 | < 300 | ≤ 1000 |
| Cn1ccc(Cn2ncc3c4sc(Cc5csc(CO)n5)nc4n(C)c3c2=O)n1 | < 300 | < 300 | < 300 | ≤ 1000 |
| Cn1c2nc(Cc3n[nH]cc3F)sc2c2cnn(Cc3cc[nH]n3)c(=O)c21 | < 300 | < 300 | < 300 | ≤ 1000 |
| Cn1c2nc(Cc3cc[nH]n3)sc2c2cnn(Cc3cccc(N)n3)c(=O)c21 | < 300 | < 300 | < 300 | ≤ 1000 |
| Cn1c2nc(Cn3cccn3)sc2c2cnn(Cc3cc[nH]n3)c(=O)c21 | < 300 | < 300 | < 300 | ≤ 1000 |
| Cn1c2nc(Cc3cc[nH]n3)sc2c2cnn(Cc3cncs3)c(=O)c21 | < 300 | < 300 | < 300 | ≤ 1000 |
| Cn1c2nc(Cc3cc[nH]n3)sc2c2cnn(Cc3ncoc3C(N)=O)c(=O)c21 | < 300 | < 300 | < 300 | ≤ 1000 |
| Cn1c2nc(Cc3c[nH]nn3)sc2c2cnn(Cc3cc[nH]n3)c(=O)c21 | < 300 | < 300 | < 300 | ≤ 1000 |
| Cn1c2nc(Cn3ccnc3)sc2c2cnn(Cc3cc[nH]n3)c(=O)c21 | < 300 | 301 to 800 | < 300 | ≤ 1000 |
| Cn1c2nc(Cc3nc(N)sc3F)sc2c2cnn(Cc3c[nH]nn3)c(=O)c21 | < 300 | < 300 | < 300 | ≤ 1000 |
| Cn1c2nc(Cc3cc[nH]n3)sc2c2cnn(Cc3ccn[nH]3)c(=O)c21 | < 300 | < 300 | < 300 | ≤ 1000 |
